Measured values: US10429393B2, “Tumor deconstruction platform for the analysis of intra-tumor heterogeneity” (NATIONAL CENTRE FOR CELL SCIENCE, priority 2014, dated 2019)

Legend:
[1] = test system: A4 serous ovarian adenocarcinoma xenografts; assay: Flow cytometric resolution of residual tumour composition (proliferative hierarchy, ploidy, cell cycle; 18 fractions) after therapy; assay type: in vivo, mice; details: for drug sensitive tumour populations (cell targets): individual treatments, grid of FIG. 9
Description: FIG. 8 represents data discussed in Example 3. a. Schematic of paclitaxel administration regime; b. Frequency (±SEM) of tumor fractions based on proliferative hierarchy, ploidy and cell cycle analysis in control and paclitaxel treated where populations 1-18 are as depicted in FIG. 6b, inset indicates frequency of cycling CSCs, 18a-PKH^hi Eu G0, 18b-PKH^hi Eu G1,18c-PKH^hi Eu S, 18d-PKH^hi Eu G2/M, 18e-PKW^hi Aneu G0, 18f-PKH^hi Aneu G1, 18g-PKH^hiAneu S, 18h-PKW^hi Aneu G2/M;*−P<0.05; **−P<0.001; ***−P<0.0001.
FIG. 9 represents the efficacy of various drug regimes through resolution of residual tumor composition after therapy in comparison with a naïve (untreated) tumor for following drug regimes—Pac ST (paclitaxel short-term: 3 doses—48 h intervals—1 week recovery), Pac LT (paclitaxel long-term, 2 cycles of ST regime); Gem ST (gemcitabine short-term, 3 doses—36 h intervals—36 h recovery), Gem LT (gemcitabine long-term, 5 doses—36 h intervals—36 h recovery); 5AzadC (3 doses—48 h intervals—1 week recovery); mAbX (6 doses of an uncharacterised antibody developed in the Bapat lab—48 h intervals—48 h recovery); Gem+mAbX ST combination therapy (3 doses of each drug—48 h intervals—48 h recovery), Gem+mAbX LT combination therapy (2 cycles each comprising of 3 doses of each drug—48 h intervals—1 week recovery); triple drug combination of gemcitabine, mAbX and 5AzadC LT (6 therapeutic cycles, each comprising of 3 doses of each drug at 48 h intervals and 1 week recovery); populations 1-18 and 18a-18h are as defined in FIGS. 6b and 8 respectively.
Standard techniques are used in the process that is illustrative rather than limiting; other common methods are acceptable in the practice of this invention. Tumor tissues were rinsed several times with phosphate buffered saline (PBS) containing antibiotic and/or anti-fungal agents, finely minced and suspended in basal media supplemented with cell dissociation agent(s) with intermittent pipetting to loosen cell aggregates. Various combinations of dissociation agents can be used depending on the tumor type and appearance and including but not being limited to EDTA, EGTA, cocktails of enzymes including trypsin, dispases, collagenases, DNAse, and the like. On dispersion of tumor cell aggregates, enzymatic activity is usually terminated by addition of serum, cells pelleted by centrifugation and washed several times with basal medium and filtered through cell strainers to obtain a single cell suspension. Cell lines are harvested as per established guidelines to obtain a single cell suspension. […] Labeled cells are xenografted in immunocompromised mice, which could be either nude, SCID, Beige/SCID, NOD/SCID, Rag-/Rag-, humanised mice models, or any known experimental xenograft animal model. Control tumors were concurrently generated using unlabeled cells. Xenografts were harvested as per animal experimental protocols and digested to generate single cell suspension from which the different sub-populations were resolved through flow cytometry.
Basic cell parameters FSC and SSC were adjusted with ND filter 1.5/2 with appropriate FSC and SSC thresholds. Cell debris was eliminated based on low FSC—low SSC, doublets using Area—width parameters and RBCs based on nuclear Propidium iodide (PI) staining. PI excitation/emission maxima are at 535/617 nm (PE channel of blue laser used for analysis). Freshly labeled cells are used to set the gates for VMF^hi cells, while TDSCS from unlabeled tumors was used in order to set the gates for VMF^neg cells. Other fluorophores including Hoechst (UV laser), Pyronin Y (PE channel of blue laser), APC (red laser) and others can be incorporated into this scheme based on their compatibility and resolution capabilities of the flow equipment used for data acquisition and/or sorting as per experimental requirements.
G0/G1, S and G2/M (as illustrated in FIG. 3) provides information regarding the proliferative capability of a tumor. […]

[2] = test system: A4 serous ovarian adenocarcinoma xenografts; assay: Tumour volume of A4 xenografts after drug regime; assay type: in vivo, mice; details: paclitaxel i.p. 25 mg/kg body weight; at the end of the regime
[3] = paclitaxel treated vs control, FIG. 8b

SMILES	drug sensitive tumour populations (cell targets) [1]	reduction in tumor volumes [2]	CSC re-entry into the cell cycle (cycling populations within PKH^hi fraction) ([1]; after therapy vs naive tumor, FIG. 8b inset, FIG. 9)	frequency of aneuploid progenitor cells ([1]; following paclitaxel treatment vs control)	PKH^hi (CSC) fraction [1, 3]	PKH^neg fraction [1, 3]
Nc1ncn([C@H]2C[C@H](O)[C@@H](CO)O2)c(=O)n1 [5 AzadC, 5AzadC]	effective against aneuploid fractions					
Nc1ccn([C@@H]2O[C@H](CO)[C@@H](O)C2(F)F)c(=O)n1 [gemcitabine]	effective in short-term sensitization of all populations within the PKH^neg fraction					
CC(=O)O[C@H]1C(=O)[C@@]2(C)[C@H]([C@H](OC(=O)c3ccccc3)[C@]3(O)C[C@H](OC(=O)[C@H](O)[C@@H](NC(=O)c4ccccc4)c4ccccc4)C(C)=C1C3(C)C)[C@]1(OC(C)=O)CO[C@@H]1C[C@@H]2O [paclitaxel]		50%	presence of cycling populations that have undergone less than 3-4 doublings within the PKH^hi fraction	Increased frequency of aneuploid progenitor cells	enhanced PKH^hi (CSC) fraction	decreased PKH^neg fraction
